Here are results for six compounds from article PMC10383864, “Novel 2-Sulfanylquinazolin-4(3H)-one Derivatives as Multi-Kinase Inhibitors and Apoptosis Inducers: A Synthesis, Biological Evaluation, and Molecular Docking Study” (Molecules, 2023).

Data set [1] is described as follows: MTT cytotoxicity assay, normal human cell line. The class given is cell-based. As to conditions: human, WI38 cells (normal human cells), 24 h treatment, mean ± SD of three experiments, read-out: In Vitro Cytotoxicity IC50 WI38. Here is the method: (§1) In addition, the safety profile of the 2-sulfanylquinazolin-4(3H)-one derivatives was evaluated against normal human cells (WI38) […]. The standard MTT (3-(4,5-dimethylthiazol-2-yl)-2,5 diphenyl tetrazolium bromide) colorimetric assay protocol was used, as described by Mosmann. […] The results were expressed as growth inhibitory concentration (IC50) values.
(§2) The cell lines were obtained from ATCC (American Type Culture Collection). […] After incubation, the cells were treated with different concentrations of the synthesized compounds and incubated for 24 h. Afterward, the cells were washed with PBS, and 20 µL of MTT solution at 5 mg/mL was added, all incubated for 4 h. The MTT solution was discarded, and 100 µL of dimethyl sulfoxide (DMSO) was added per well. […] The relative cell viability in percentage was calculated as (A570 of treated cells/A570 of untreated cells) × 100.

The next data set concerns HeLa cells. Put plainly: MTT cytotoxicity assay. As to conditions: 24 h treatment, mean ± SD of three experiments, read-out: In Vitro Cytotoxicity IC50 HeLa. Type of data set: cell-based, human. The method, then: as §1, §2
Another data set has as its system HepG2 cells. In words: MTT cytotoxicity assay. Type of data set: cell-based, human. Particulars: 24 h treatment, mean ± SD of three experiments, read-out: In Vitro Cytotoxicity IC50 HepG2. Here is the method:
as §1, §2

The next data set concerns MCF-7 cells. Put plainly: MTT cytotoxicity assay. Type of data set: cell-based, human. As to conditions: MCF-7, MTT, 24 h treatment, mean ± SD of three experiments, read-out: In Vitro Cytotoxicity IC50 MCF-7. The method, then: as §1, §2
The test system of another data set is MDA-MB-231 cells. In words: MTT cytotoxicity assay. The class given is cell-based, human. Particulars: MDA-MB-231, MTT, 24 h treatment, mean ± SD of three experiments, read-out: In Vitro Cytotoxicity IC50 MDA-MB-231. Here is the method:
as §1, §2

Another data set has as its system WI38 cells. Put plainly: MTT cytotoxicity assay, normal human cell line. Type of data set: cell-based. Particulars: 24 h treatment, mean ± SD of three experiments, read-out: In Vitro Cytotoxicity IC50 WI38. Here is the method: as §1, §2
Data set [2] concerns HepG2, MCF-7, MDA-231, and HeLa. In words: MTT cytotoxicity assay, range over the tested cancer cell lines. Type of data set: cell-based. Particulars: Homo sapiens, range over HepG2, MCF-7, MDA-231 and HeLa, read-out: IC50 range against all tested cancer cell lines. The method, then: as §1, §2

Read-outs that look alike come from different tables or passages of the source.

In turn, `Cc1ccc(CSc2nc3ccc(F)cc3c(=O)n2-c2ccc(F)cc2)cc1` [Compound 5a, 3-(4-fluoro-Arenyl)-6-fluoro-2-(4-methyl-benzylsulfanyl)-3H-quinazolin-4-one] displayed a melting point of 166 to 168 °C. Besides, the half-maximal inhibitory concentration (IC50) at 24 h in data set [1] worked out at 28.7 ± 2.2 µM. Also, the IC50 in the data set on HeLa cells (Homo sapiens, 24 h) worked out at 83.2 ± 4.1 µM. For the same compound, the 50% inhibitory concentration (IC50) with HepG2 cells (Homo sapiens, HepG2, 24 h) was more than 100 µM. Further, the IC50 with MCF-7 cells (Homo sapiens, MCF7, 24 h) was 86 ± 4.4 µM. Further, in the data set on MDA-MB-231 cells (Homo sapiens, MDA-MB-231, 24 h), the half-maximal inhibitory concentration (IC50) stood at 79.1 ± 4 µM.

Compound `Cc1ccc(CSc2nc3ccc(F)cc3c(=O)n2-c2ccccc2)cc1` [Compound 5b, 6-Fluoro-2-(4-methyl-benzylsulfanyl)-3-Arenyl-3H-quinazolin-4-one] returned a melting point of 158 to 160 °C. In addition, the IC50 at 24 h in data set [1] is more than 100 µM. Besides, in the data set on HeLa cells (Homo sapiens, 24 h), the half-inhibitory concentration (IC50) was more than 100 µM. Further, the half-inhibitory concentration (IC50) in the data set on HepG2 cells (Homo sapiens, HepG2, 24 h) came to 85 ± 4.6 µM. Moreover, the half-maximal inhibitory concentration (IC50) with MCF-7 cells (Homo sapiens, MCF7, 24 h) amounted to 91.2 ± 4.8 µM. Also, the half-inhibitory concentration (IC50) in the data set with MDA-MB-231 cells (Homo sapiens, MDA-MB-231, 24 h) amounted to 78.3 ± 3.9 µM.

`Cc1ccc(-n2c(SCc3ccccc3)nc3ccc(F)cc3c2=O)cc1` [Compound 5c, 2-Benzylsulfanyl-6-fluoro-3-(4-methyl-Arenyl)-3H-quinazolin-4-one] displayed a melting point of 156 to 158 °C. Moreover, the IC50 in the data set on WI38 cells is 40.9 ± 2.6 µM. In addition, the IC50 in the data set with HeLa cells worked out at 31.2 ± 2.1 µM. Moreover, in the data set on HepG2 cells, the IC50 was found to be 34.3 ± 2.4 µM. Further, in the data set on MCF-7 cells, the IC50 came to 51.9 ± 3.1 µM. In addition, the IC50 with MDA-MB-231 cells was 26.9 ± 1.9 µM.

As for `Cc1ccc(-n2c(SCc3ccc(F)cc3)nc3ccc(F)cc3c2=O)cc1` [Compound 5e, 2-(4-Fluoro-benzylsulfanyl)-6-fluoro-3-(4-methylArenyl)-3H-quinazolin-4-one], the melting point was in the range of 170 to 172 °C. Moreover, in data set [1], the IC50 at 24 h is 55.8 ± 3.2 µM. Moreover, the IC50 in the data set on HeLa cells (Homo sapiens, 24 h) came out at 38.2 ± 2.3 µM. In the data set on HepG2 cells (Homo sapiens, HepG2, 24 h), the IC50 amounted to 29.5 ± 2.2 µM. Also, the IC50 in the data set with MCF-7 cells (Homo sapiens, MCF7, 24 h) was 25.2 ± 1.9 µM. Further, in the data set with MDA-MB-231 cells (Homo sapiens, MDA-MB-231, 24 h), the IC50 was determined as 19.2 ± 1.5 µM. In addition, in data set [2], the IC50 lay in the range of 19.2 to 38.2 µM.

`COc1cccc2c1C(=O)c1c(O)c3c(c(O)c1C2=O)C[C@@](O)(C(=O)CO)C[C@@H]3O[C@H]1C[C@H](N)[C@H](O)[C@H](C)O1` [Dox., doxorubicin, reference compound]: the 50% inhibitory concentration (IC50) in the data set on HepG2 cells (Homo sapiens, HepG2, 24 h) worked out at 4.5 ± 0.2 µM.

For the compound `CCN(CC)CCNC(=O)c1c(C)[nH]c(/C=C2\C(=O)Nc3ccc(F)cc32)c1C` [Sunitinib, sunitinib, reference compound], in data set [1], the 50% inhibitory concentration (IC50) at 24 h was determined as 77.3 ± 4.3 µM. Also, the 50% inhibitory concentration (IC50) with HeLa cells (Homo sapiens, 24 h) amounted to 21.8 ± 1.7 µM; in the data set with HepG2 cells (Homo sapiens, HepG2, 24 h) it was 11.3 ± 1 µM; in the data set with MCF-7 cells (Homo sapiens, MCF7, 24 h), 24.8 ± 1.8 µM; in the data set with MDA-MB-231 cells (Homo sapiens, MDA-MB-231, 24 h), 19 ± 1.5 µM.
